# Laboratory results published in US20040126431A1, “Method for preparing microspheres containing a water-soluble substance” (priority 2000, published 2004).
# Columns and labels:
# [1] = system: IGROV-1 xenografts (peritoneal ovarian adenocarcinoma of human origin); experiment: Antitumor activity on IGROV-1 tumors after i.p. administration; assay type: in vivo, Nude mice; conditions: for Survival at D98: survivors/5 mice
# Excerpt: 10^7 viable IGROV-1 cells were inoculated i.p. into Nude mice. On day 15 after inoculation of tumor cells, the mice were given the substances tested by i.p. administration.
# The control group was given only a solution of 5% glucose or empty microspheres. Each group was made up of 5 mice. Isoflurane was used to anesthetize the animals before implantation of the tumor or sacrifice of the animals.
# (§1) The experiments were stopped when the size of the tumor reached 2 000 mm^3 or when the period after the final treatment exceeded 60 days. Mice carrying progressive tumors were sacrificed. The mice were weighed and examined twice a week, and the weight of the sick animals was compared with the weight of three healthy mice (no tumor, no treatment, of the same batches). The animals were monitored for 98 days.
# [2] = system: PC-3 human prostate tumors (xenografts); experiment: Antitumor activity on PC-3 human prostate tumors after i.t. administration; assay type: in vivo, Nude mice
# Method: 10^7 PC-3 cells were inoculated on the flank of male Nude mice. The treatment began from a tumor size of 210-266 mm^3 (day 30).
# The volume of the test substances administered to the PC-3 tumors was equivalent to the tumor volume (1 μl of treatment per 1 mm^3 of tumor).
# as §1
smiles,measurement,setting,value
"O=C1[O][Pt]2([NH][C@@H]3CCCC[C@H]3[NH]2)[O]C1=O [Oxaliplatin, oxaliplatin]",T/C % (median survival time treated / untreated control x 100),"[1]; i.p., 6 mg/kg oxaliplatin administered 3 times every four days, treatment from day 15",85.71%
same,Survival at D98,"[1]; i.p., 6 mg/kg oxaliplatin administered 3 times every four days",0/5
same,antitumor activity (in words),"[1]; i.p., dose of 15 mg base/kg oxaliplatin",did not show any significant antitumor activity
same,T/C % (median survival time treated / untreated control x 100),"[1]; single i.p. dose, 15 mg/kg oxaliplatin, day 15",102.38%
same,Survival at D98,"[1]; single i.p. dose, 15 mg/kg oxaliplatin",1/5
same,T/C %,"[2]; i.v., 6 mg/kg oxaliplatin administered three times every four days",80.41%
same,T/C %,"[2]; single i.t. injection, 30 mg/kg oxaliplatin, 30 mg/kg",5.24%
same,T/C %,"[2]; single i.v. injection, 15 mg/kg oxaliplatin",55.47%
